Test results taken from patent US7638509B2, “Diene compounds and formulations” (priority 2003, dated 2009).
Substitutions are numbered along the chain they refer to.

Key:
mutant AR = biological target: T1, mutant AR (Homo sapiens, UniProt P10275, T878A); experiment: AR transcription, MMTV-Luc reporter in LNCaP cells; assay type: cell-based; settings: MMTV-Luc
T1 construct: LNCaP without transfection; endogenous in cells; host or cells: LNCaP
T1 sequence (P10275 1-920 T878A): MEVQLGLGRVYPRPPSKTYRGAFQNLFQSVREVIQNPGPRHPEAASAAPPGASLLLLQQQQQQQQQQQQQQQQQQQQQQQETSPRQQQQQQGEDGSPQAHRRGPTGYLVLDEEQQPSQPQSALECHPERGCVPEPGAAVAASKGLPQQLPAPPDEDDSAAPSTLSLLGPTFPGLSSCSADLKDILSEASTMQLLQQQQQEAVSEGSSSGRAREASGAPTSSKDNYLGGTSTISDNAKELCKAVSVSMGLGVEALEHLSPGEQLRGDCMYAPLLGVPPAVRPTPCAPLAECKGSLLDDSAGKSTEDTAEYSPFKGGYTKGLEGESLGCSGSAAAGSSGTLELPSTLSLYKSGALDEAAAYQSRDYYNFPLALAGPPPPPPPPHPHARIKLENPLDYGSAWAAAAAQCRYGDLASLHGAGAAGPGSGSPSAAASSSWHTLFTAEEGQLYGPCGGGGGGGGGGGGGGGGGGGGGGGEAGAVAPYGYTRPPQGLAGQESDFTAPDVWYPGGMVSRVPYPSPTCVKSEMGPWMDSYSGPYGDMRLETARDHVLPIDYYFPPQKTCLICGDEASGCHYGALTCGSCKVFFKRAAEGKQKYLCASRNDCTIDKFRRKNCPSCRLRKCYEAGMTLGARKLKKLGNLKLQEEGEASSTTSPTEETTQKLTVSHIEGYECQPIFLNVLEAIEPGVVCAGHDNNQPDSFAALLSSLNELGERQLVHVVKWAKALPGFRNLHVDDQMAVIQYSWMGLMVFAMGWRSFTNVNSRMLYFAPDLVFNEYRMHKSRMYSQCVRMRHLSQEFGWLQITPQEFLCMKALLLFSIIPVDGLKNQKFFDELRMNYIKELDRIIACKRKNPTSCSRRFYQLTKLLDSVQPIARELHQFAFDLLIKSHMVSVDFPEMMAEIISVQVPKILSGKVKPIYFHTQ
Experimental: (§1) Cell Culture, Transfection, and Reporter Gene Assay. The human prostate cancer cell lines, LNCaP, PC-3, and DU145, and non-prostate cancer cell line COS-1 were maintained in RPMI or Dulbecco's modified Eagle's medium (DMEM) (Life Technologies) supplemented with 10% fetal bovine serum (FBS). […] Briefly, cells seeded to reach a density of 50-60% confluence in 12 well tissue culture plates were transfected with 1.5 μg of DNA according to “SuperFect transfection” instructions (Qiagen). After 2-3 h incubation, cells were treated with medium supplemented with charcoal-stripped FBS containing either ethanol or ligands for 24 h. The cells were then harvested and whole cell extracts were used for Luc assay. The Luc activity was determined using a Dual-Luciferase Reporter Assay System (Promega) and luminometer.
(§2) The pSG5-AR was co-transfected in COS-1 cells. […] Values were obtained from the mean±SD of at least three determinations. DU145 cells were transfected with the pSG5-AR and MMTV-Luc in the presence or absence of pSG5-ARA70. […] Values were obtained for the mean±SD of at least three determinations.

AR = biological target: T2, AR (Homo sapiens, UniProt P10275, T878A); experiment: Competitive [3H]-R1881 ligand binding assay, LNCaP whole cell extracts; settings: 1 nM [3H]-R1881, unlabeled ligand 1-10,000 nM, relative to DHT
T2 construct: LNCaP without transfection; endogenous in cells; host or cells: LNCaP
T2 sequence (P10275 1-920 T878A): T1 sequence (P10275 1-920 T878A)
Experimental: Ligand Binding Assay. Whole cell extracts from COS-1 with transient transfection of pSG5-AR, or LNCaP without transfection, were incubated for 2 h at 37° C. with 1 nM [^3H]-synthetic androgen methyltrienolone (R1881) in the presence and absence of increasing concentrations (1-10,000 nM) of unlabeled ligands. Then, hydroxyapatite (Bio-Rad) was added and stirred for 15 min at 4° C. After centrifugation and washing, radioactivity was determined by scintillation counting.
Clinically available antiandrogens have an affinity for the AR, allowing a competition with androgens for binding. To determine whether ADEK has this common feature of AR antagonists, the competitive androgen binding assay was performed.

wild-type AR = biological target: T3, wild-type AR (Homo sapiens, UniProt P10275); experiment: AR transcription, MMTV-Luc reporter in COS-1 cells co-transfected with pSG5-AR; assay type: cell-based; set-up: expressed in transfected cells; host or cells: COS-1
T3 sequence (P10275 1-920): T1 sequence (P10275 1-920 T878A) with A878T
Experimental: as §1, §2

CC(=O)O[C@H]1C=C[C@@]2(C)C(=CC[C@@H]3[C@@H]2CC[C@@]2(C)[C@H]3CCC23OCCO3)C1 [ADEK, 3β-acetoxy-17,17-ethylenedioxyandrosta-1,5-diene]
DHT-induced mutant AR transcription suppressed to (DHT = 100%) (mutant AR; 1 nM DHT, dose-dependent): 17% | agonist / androgenic activity on mutant AR transcription (in words) (mutant AR; HF at 10 μM): lower than that of casodex | RBA in LNCaP (AR): 11.1 | relative Luc activity (DHT control = 100%) (wild-type AR; COS-1, 1 nM DHT, compound at 0.01 μM): about 75% | relative Luc activity (DHT control = 100%) (wild-type AR; COS-1, 1 nM DHT, compound at 0.1 μM): about 60% | DHT-induced wild-type AR transcription suppressed to (relative Luc activity, DHT = 100%) (wild-type AR; COS-1, 1 nM DHT, compound at 1 μM): 21% | androgenic activity on wild-type AR transcription (in words) (wild-type AR; COS-1, compared with HF and casodex): lower androgenic activity | melting point: 105 to 106 °C
